Reference: PMC5754413, “Mass balance, metabolic disposition, and pharmacokinetics of a single oral dose of regorafenib in healthy human subjects” (Cancer Chemotherapy and Pharmacology, 2017)

Tested on: human feces
Test: Incubation with human feces under anaerobic conditions
Format: in vitro ADME
Conditions: anaerobic conditions, ex vivo
Procedure: Under anaerobic conditions, a suspension of fresh human feces (about 0.5 g) in degassed water (final volume 5 mL) was treated with a solution of [^14C]-labelled metabolite M-2 or metabolite M-7 (1 mg/mL acetonitrile; final concentration: 10 μM). After incubation for 24 h at 37 °C, the incubation mixture was terminated by the addition of acetonitrile (2 mL). After centrifugation (5 min, 3000 rpm), the supernatant (25 μL) was directly subjected to HPLC with the respective off-line radioactivity detection. As negative controls, metabolites M-2 and M-7 were incubated in water for 24 h at 37 °C.

Stability in feces / toward gut flora: stable
Structure (SMILES): CNC(=O)c1cc(Oc2ccc(NC(=O)Nc3ccc(Cl)c(C(F)(F)F)c3)c(F)c2)ccn1 [Regorafenib, 4-[4-({[4-chloro-3-(trifluoromethyl)phenyl]carbamoyl}amino)-3-fluorophenoxy]-N-methylpyridine-2-carboxamide]
